Earlier results on four compounds are cited in patent publication US10391087B2, “Combination of oxymetazoline and ipratropium in topical nasal application for the treatment of a cough” (priority 2015, dated 2019).

Where two headings read alike, the source gives them in different places.

The test system of data set [1] is ileum guinea pigs nerve tissue. The note with it: range 20 to 70% with increasing concentrations of noradrenaline.
Data set [2] deals with nasal secretion (rhinorrhea).
In data set [3] the test system is cardiac response of rabbit vagal electrical stimulation. The note with it: rabbit heart.
The next data set has as its target T1, human α1A-adrenoceptors (Homo sapiens, UniProt P35348).
T1 sequence (P35348 1-466): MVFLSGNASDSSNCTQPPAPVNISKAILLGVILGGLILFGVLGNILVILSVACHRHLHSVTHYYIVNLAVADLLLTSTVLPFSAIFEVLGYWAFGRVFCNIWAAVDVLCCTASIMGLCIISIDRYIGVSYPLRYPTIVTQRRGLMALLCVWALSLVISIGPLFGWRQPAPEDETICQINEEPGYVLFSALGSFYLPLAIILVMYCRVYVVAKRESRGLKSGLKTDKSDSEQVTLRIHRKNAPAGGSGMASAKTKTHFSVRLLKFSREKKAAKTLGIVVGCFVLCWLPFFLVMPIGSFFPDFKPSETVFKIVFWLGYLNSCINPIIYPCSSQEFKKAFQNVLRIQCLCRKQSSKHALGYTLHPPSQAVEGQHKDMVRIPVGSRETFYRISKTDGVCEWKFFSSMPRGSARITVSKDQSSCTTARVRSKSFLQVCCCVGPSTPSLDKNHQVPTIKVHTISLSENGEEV
The following applies: heterologous cells expressing human α1A-adrenoceptors.

The subject of the next data set is α-1 and α-2 receptors. The note with it: inhibited by α-1 antagonist prazosin, minimal inhibition by α-2 antagonist yohimbine.

In the case of `NC[C@H](O)c1ccc(O)c(O)c1` [Noradrenaline, noradrenaline], the “reduction of acetilcoline discharge, average” value in data set [1] is 56.8%.
As to `CC(C)[N+]1(C)[C@@H]2CC[C@H]1C[C@@H](OC(=O)C(CO)c1ccccc1)C2` (stereo partly shown) [ipratropium], in data set [2] (four studies, ipratropium alone, intranasally), the nasal discharge result is “lower nasal discharge”.
With `Cc1cc(C(C)(C)C)c(O)c(C)c1CC1=NCCN1` [oximetazoline, oxymetazoline], the “cardiac response of vagal electrical stimulation” value in data set [3] was “significantly inhibited”. Further, the blood pressure entry is “significant increase in blood pressure” (large doses of 0.3%) and “no” (standard doses of 0.01 to 0.1%). Moreover, the “Ca2+ responses” value on human α1A-adrenoceptors is reported as “induce responses Ca^2+”. Besides, in the data set with α-1 and α-2 receptors, the contraction entry was “dose dependent contraction”.
With `Cc1cc(C(C)(C)C)cc(C)c1CC1=NCCN1` [xilometazoline], the rhinorrhea result in data set [2] (5 to 10 days after start of the infectious process, p<0.05) was “decreased rhinorrhea”; in data set [2] (another study, measured on day 1 of administration), “increases”. For the same compound, the “nasal secretion compared with placebo” value in data set [2] (Eccles 2008, xilometazoline alone, p<0.05) is “decreased nasal secretion”.
